Test results published in ChEMBL document CHEMBL1201862, “PubChem BioAssay data set” (2004).
The source made the active and inactive calls.

Columns and labels:
[1] = viability loss in HEK293 cells – cell-based, plate reader, cherry-picked samples, cytotoxicity control, dose response (AID 743446); assay type: functional
[2] = loss of viability in HepG2 cells – cell-based, CellTiter-Glo, cherry-picked, cytotoxicity control for Shn3 inhibitor project, dose response (AID 624134); assay type: functional
HEK293 [3] = assay: EBV LMP1 TES2 canonical NF-kB signalling blockers – cell-based, HEK293, luciferase, cherry-pick, dose response (AID 588343); assay type: functional; conditions: Homo sapiens
[4] = toxicity toward HepG2 liver cells – cell-based, plate reader, cherry-pick, antagonist series, cytotoxicity control, dose response (AID 743416); assay type: functional
[5] = biological target: Latent membrane protein 1 (Human herpesvirus 4 (strain B95-8), UniProt P03230); assay: LMP1 TES1 pathway selectivity over dsRED control – imaging, HEK293T, dual-color eGFP/dsRED, cherry-picks, selectivity assay for LMP1 NF-kB inhibitor project, dose response (AID 588398); assay type: functional, cell-based
Sequence of Latent membrane protein 1 (P03230 whole entry): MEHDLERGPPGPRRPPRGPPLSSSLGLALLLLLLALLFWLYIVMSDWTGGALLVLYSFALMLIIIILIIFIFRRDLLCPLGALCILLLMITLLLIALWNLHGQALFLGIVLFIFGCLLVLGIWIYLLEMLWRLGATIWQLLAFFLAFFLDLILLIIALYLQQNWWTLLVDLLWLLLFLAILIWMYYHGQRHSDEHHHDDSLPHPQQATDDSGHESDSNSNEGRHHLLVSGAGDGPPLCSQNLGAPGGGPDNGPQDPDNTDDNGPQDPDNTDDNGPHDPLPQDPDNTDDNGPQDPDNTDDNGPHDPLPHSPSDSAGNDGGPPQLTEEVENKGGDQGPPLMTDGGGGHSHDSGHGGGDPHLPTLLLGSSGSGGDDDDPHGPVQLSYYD

[6] = non-specific 3'UTR reporter inhibition in Clone20-Shn3RL – cell-based, Renilla luciferase, cherry-picked, counter-screen for Shn3 inhibitor project, dose response (AID 624133); assay type: functional
[7] = reduction of Shn3 3'UTR-driven luciferase in osteoblasts – cell-based, Clone20 osteoblasts, firefly luciferase, cherry-picked, dose response (AID 624132); assay type: functional;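 note: firefly luciferase luminescence from reporter carrying the Shn3 3'UTR in osteoblasts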
[8] = blockers of bursicon-stimulated LGR2 cAMP reporter – cell-based, HEK293, CRE-luciferase reporter, cherry pick, set 2, dose response (AID 743343); assay type: functional;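 note: transfected cells were stimulated with diluted bursicon conditioned medium after compound addition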
[9] = viability loss in HEK293T cells – cell-based, cherry-picks, cytotoxicity control for HIV Vif inhibitor project, dose response (AID 652208); assay type: functional
[10] = A549 cell cytotoxicity, dose response, cytotoxicity control, plate reader, cherry-pick, antagonist series (AID 743412); assay type: functional, cell-based
Insulin-degrading enzyme [11] = biological target: T1, Insulin-degrading enzyme (Homo sapiens, UniProt P14735); assay: cellular IDE activation of Abeta substrate cleavage – fluorescence polarization, HEK cells, dose response (AID 588439); assay type: functional, cell-based
T1 sequence (P14735 whole entry): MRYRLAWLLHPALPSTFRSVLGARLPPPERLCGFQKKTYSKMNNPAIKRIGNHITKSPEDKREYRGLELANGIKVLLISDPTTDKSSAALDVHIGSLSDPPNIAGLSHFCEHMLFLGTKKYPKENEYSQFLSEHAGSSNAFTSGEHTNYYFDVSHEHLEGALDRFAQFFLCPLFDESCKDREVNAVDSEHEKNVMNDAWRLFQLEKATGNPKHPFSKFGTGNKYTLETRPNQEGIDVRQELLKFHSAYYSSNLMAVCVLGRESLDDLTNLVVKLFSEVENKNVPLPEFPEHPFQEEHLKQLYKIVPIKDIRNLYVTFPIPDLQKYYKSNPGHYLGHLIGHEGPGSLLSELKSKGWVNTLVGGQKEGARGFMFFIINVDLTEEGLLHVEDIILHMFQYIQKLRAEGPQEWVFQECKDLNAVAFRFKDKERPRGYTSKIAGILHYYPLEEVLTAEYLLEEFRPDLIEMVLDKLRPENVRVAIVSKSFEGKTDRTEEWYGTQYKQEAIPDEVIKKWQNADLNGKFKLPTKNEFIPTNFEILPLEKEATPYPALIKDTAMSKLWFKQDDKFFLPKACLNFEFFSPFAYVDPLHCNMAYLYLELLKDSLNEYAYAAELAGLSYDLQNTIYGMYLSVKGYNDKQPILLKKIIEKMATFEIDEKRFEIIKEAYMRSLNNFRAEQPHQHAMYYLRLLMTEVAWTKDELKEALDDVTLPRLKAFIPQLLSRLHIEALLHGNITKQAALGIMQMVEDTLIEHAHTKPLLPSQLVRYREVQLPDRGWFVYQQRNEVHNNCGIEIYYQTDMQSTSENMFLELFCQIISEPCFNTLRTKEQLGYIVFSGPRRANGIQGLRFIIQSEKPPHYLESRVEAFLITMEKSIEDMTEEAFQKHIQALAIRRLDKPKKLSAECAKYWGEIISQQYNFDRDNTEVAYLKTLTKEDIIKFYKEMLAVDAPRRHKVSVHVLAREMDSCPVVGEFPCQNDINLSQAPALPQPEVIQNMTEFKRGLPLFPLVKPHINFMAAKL

Insulin-degrading enzyme [12] = biological target: T1, Insulin-degrading enzyme; assay: recombinant IDE activation, cell-free – biochemical, fluorescence polarization, counter-screen for IDE activator project, dose response (AID 588681)
HEK293 [13] = assay: optical interference in Abeta FP readout, dose response, artefact control for IDE activator project, biochemical, fluorescence polarization (AID 588442); assay type: functional, cell-based; conditions: Homo sapiens
HEK293 [14] = assay: membrane integrity loss in HEK cells – cell-based, fluorescence, cytotoxicity control for IDE activator project, dose response (AID 588440); assay type: functional; conditions: Homo sapiens;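 note: cytotoxicity by LDH release measuring loss of membrane integrity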
[15] = biological target: Protein disulfide-isomerase (Homo sapiens, UniProt P07237); assay: inhibition of PDI-driven insulin aggregation – biochemical, turbidity, absorbance, cherry-picked samples, dose response (AID 602350); assay type: functional
Sequence of Protein disulfide-isomerase (P07237 whole entry): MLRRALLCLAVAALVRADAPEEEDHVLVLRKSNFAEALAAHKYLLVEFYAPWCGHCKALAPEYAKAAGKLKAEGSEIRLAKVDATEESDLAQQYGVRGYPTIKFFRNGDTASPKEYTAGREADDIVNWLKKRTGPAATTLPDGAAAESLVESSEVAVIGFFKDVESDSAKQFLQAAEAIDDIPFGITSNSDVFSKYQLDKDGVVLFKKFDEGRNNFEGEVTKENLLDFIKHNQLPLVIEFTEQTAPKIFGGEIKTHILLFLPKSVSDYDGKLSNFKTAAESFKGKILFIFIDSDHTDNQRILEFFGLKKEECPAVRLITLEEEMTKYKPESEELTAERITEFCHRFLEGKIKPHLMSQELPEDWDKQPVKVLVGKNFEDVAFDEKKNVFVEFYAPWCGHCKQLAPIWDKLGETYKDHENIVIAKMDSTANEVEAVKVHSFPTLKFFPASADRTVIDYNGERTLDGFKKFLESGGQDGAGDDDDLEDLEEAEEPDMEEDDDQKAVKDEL

[16] = biological target: T2, Sentrin-specific protease 8 (Homo sapiens, UniProt Q96LD8); assay: inhibition of human SENP8 cleavage activity – biochemical, luminescence, SAR follow-up (AID 504501); assay type: functional
T2 sequence (Q96LD8 whole entry): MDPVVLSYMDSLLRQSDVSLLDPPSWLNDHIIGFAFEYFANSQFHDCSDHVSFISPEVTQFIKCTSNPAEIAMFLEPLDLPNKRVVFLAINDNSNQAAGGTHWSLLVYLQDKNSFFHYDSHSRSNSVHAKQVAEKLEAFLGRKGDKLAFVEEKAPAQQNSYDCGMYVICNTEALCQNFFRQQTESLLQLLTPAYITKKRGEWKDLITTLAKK

[17] = biological target: T3, Sentrin-specific protease 6 (Homo sapiens, UniProt Q9GZR1); assay: SAR Analysis of small molecule inhibitors of Sentrin-specific protease 6 (SENP6) using a Luminescent assay. [Related pubchem assays (depositor defined):AID2582, AID2599]; assay type: functional
T3 sequence (Q9GZR1 whole entry): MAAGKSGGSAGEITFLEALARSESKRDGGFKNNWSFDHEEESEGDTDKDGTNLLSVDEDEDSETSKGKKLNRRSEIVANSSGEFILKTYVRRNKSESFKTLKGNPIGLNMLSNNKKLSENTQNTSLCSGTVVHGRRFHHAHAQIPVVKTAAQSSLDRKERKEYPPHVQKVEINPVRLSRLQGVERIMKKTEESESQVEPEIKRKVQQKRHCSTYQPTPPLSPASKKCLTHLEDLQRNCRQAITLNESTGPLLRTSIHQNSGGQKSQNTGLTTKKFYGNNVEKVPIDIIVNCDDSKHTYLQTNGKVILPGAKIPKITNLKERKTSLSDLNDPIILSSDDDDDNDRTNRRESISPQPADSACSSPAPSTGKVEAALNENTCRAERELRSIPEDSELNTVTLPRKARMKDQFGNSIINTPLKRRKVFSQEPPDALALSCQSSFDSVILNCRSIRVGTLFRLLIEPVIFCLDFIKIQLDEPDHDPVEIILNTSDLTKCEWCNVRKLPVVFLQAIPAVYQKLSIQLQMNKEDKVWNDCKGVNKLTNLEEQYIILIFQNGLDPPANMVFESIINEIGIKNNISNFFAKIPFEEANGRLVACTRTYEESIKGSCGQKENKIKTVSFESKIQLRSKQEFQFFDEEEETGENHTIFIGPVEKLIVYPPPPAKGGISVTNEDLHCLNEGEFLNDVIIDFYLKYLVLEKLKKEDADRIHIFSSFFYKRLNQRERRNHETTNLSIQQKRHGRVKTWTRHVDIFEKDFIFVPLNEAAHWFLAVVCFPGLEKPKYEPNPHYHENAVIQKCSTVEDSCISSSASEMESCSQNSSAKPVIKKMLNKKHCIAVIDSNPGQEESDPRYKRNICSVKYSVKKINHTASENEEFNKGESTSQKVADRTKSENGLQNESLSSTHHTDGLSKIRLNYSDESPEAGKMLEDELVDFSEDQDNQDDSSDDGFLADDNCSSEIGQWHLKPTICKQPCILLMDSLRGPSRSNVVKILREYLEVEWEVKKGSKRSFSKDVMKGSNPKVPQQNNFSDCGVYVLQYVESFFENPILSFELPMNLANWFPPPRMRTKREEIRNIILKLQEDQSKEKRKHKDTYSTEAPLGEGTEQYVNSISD

Caspase-3 [18] = biological target: T4, Caspase-3 (Homo sapiens, UniProt P42574); assay: SAR Analysis of small molecule inhibitors of Sentrin-specific proteases (SENPs) using a Caspase-3 Selectivity assay. [Related pubchem assays (depositor defined):AID2540, AID2599, AID434973, AID489001]; assay type: functional
T4 sequence (P42574 whole entry): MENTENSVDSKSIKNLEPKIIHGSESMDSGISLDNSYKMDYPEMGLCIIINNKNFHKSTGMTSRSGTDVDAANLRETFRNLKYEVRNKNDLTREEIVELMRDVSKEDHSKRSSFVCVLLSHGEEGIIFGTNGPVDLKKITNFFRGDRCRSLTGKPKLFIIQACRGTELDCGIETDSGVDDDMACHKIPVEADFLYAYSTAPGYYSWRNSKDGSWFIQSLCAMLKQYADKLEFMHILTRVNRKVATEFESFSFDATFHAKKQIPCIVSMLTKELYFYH

Caspase-3 [19] = biological target: T4, Caspase-3; assay: inhibition of recombinant caspase-3 activity – biochemical, luminescence, set 2, selectivity assay for SENP protease inhibitor project, SAR follow-up (AID 588599); assay type: functional
[20] = biological target: T5, Sentrin-specific protease 7 (Homo sapiens, UniProt Q9BQF6); assay: inhibition of human SENP7 cleavage activity – biochemical, luminescence, SAR follow-up (AID 504497); assay type: functional
T5 sequence (Q9BQF6 whole entry): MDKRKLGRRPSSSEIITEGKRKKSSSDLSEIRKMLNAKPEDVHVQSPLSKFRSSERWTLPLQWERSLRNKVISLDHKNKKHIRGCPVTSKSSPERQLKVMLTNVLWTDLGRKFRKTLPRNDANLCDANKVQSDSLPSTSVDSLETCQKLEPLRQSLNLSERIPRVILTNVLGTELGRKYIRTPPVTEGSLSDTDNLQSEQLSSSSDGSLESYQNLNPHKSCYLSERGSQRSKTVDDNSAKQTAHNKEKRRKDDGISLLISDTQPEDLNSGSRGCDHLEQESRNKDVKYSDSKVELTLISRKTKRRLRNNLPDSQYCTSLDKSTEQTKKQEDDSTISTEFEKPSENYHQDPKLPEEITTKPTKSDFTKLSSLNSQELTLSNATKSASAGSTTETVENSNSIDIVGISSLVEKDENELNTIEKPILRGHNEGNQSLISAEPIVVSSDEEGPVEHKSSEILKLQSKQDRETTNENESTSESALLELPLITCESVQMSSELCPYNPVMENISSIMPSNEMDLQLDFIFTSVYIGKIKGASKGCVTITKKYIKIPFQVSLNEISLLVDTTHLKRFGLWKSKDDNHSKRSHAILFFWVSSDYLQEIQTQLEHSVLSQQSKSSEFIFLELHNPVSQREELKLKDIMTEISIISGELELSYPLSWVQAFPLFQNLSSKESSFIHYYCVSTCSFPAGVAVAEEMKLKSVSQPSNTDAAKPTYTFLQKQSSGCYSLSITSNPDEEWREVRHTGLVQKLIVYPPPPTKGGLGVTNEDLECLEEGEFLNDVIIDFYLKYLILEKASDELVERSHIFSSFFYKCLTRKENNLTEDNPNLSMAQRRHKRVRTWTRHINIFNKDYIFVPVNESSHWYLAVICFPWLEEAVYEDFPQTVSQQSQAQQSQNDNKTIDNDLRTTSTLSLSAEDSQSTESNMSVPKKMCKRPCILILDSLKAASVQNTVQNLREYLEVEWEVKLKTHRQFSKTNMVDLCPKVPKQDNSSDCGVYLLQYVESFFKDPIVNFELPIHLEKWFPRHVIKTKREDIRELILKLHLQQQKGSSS

[21] = biological target: T3, Sentrin-specific protease 6; assay: inhibition of human SENP6 catalytic domain – biochemical, luminescence, set 2, SAR follow-up (AID 588598); assay type: functional
[22] = biological target: T2, Sentrin-specific protease 8; assay: inhibition of sentrin protease 8 – biochemical, luminescence, set 2, SAR follow-up (AID 588601); assay type: functional

## CC(C)OC(=O)c1ccc(NCc2cc(O)ccc2O)cc1Cl
[1]
  AC50: 4.76 µM (active)
[2]
  AC50: 33.5 µM (active)
HEK293 [3]
  AC50: 10.9 µM (active)
[4]
  AC50: 23.6 µM (active)
[5]
  AC50: 9.48 µM (active)
[6]
  AC50: 4.45 µM (active)
[7]
  AC50: 2.15 µM (active)
[8]
  AC50: 49.2 µM (active)
[9]
  AC50: 6.42 µM (active)
[10]
  AC50: 17 µM (active)

## CC(C)(O)C#Cc1ccccc1C(=O)NC(CC(N)=O)C(=O)O (configuration not stated)
Insulin-degrading enzyme [11]
  EC50: > 54.7 µM (inactive)
Insulin-degrading enzyme [12]
  EC50: > 54.7 µM (inactive)
HEK293 [13]
  EC50: > 55.9 µM (inactive)
HEK293 [14]
  IC50: > 89.2 µM (inactive)

## COc1ccc(C)cc1S(=O)(=O)N(CC(=O)Nc1cc([N+](=O)[O-])ccc1C)c1ccc(C)c(C)c1
[5]
  AC50: 29.5 µM (active)

## O=C(CN1C(=O)COc2ccc(S(=O)(=O)N3CCCC3)cc21)NCc1ccccn1
Insulin-degrading enzyme [11]
  EC50: > 54.7 µM (inactive)
Insulin-degrading enzyme [12]
  EC50: > 54.7 µM (inactive)
HEK293 [13]
  EC50: > 54.7 µM (inactive)
HEK293 [14]
  IC50: > 89.2 µM (inactive)

## O=C(NC(Cc1ccc(O)cc1)C(=O)N=Nc1c(O)[nH]c2ccccc12)c1ccccc1 (configuration not stated)
[15]
  AC50: 19.5 µM (active)

## CN(C)c1ccc(/C=C/c2noc(-c3ccccc3O)n2)cc1
[16]
  IC50: 2.1 µM (active)
[17]
  IC50: 1.9 µM (active)
Caspase-3 [18]
  IC50: 1.3 µM (active)
Caspase-3 [19]
  IC50: 1.16 µM (active)
[20]
  IC50: 1.7 µM (active)
[21]
  IC50: 1.45 µM (active)
[22]
  IC50: 1.42 µM (active)
